Experimental data published in patent US20130123367A1, “VINYLOGOUS CHALCONE DERIVATIVES AND THEIR MEDICAL USE” (MEDIZINISCHE UNIVERSITAT WIEN, priority 2010, published 2013).
Read-outs that look alike come from different tables or passages of the source.

Tests used:
[1] = system: healthy peripheral blood mononuclear cells (PBMC); test: Effect on healthy PBMC (CellTiter-Blue viability)
Protocol: FIG. 8: Effect of compounds 1 and 22 according to the invention as well as the control drugs fludarabine and cyclophosphamide on the viability of healthy peripheral blood mononuclear cells (PBMC) in suspension culture after 48 h incubation. Data points represent one individual calculated in relation to the control. Viability was measured using the CellTiter Blue assay (Promega, Madison, Wis., USA), and cells incubated in solvent only were used as control.
For quantification, cells were treated with resazurin (7-hydroxy-3H-phenoxazin-3-one 10-oxide) as indicator of cell viability. The method is based on the finding that living cells are able to reduce the non-fluorescent blue dye into the pink colored and highly red fluorescent resorufine. After adding the substrate the cells are incubated for 2 to 4 hours. Then, the solution is analyzed at 560 nm Ex/590 nm Em on a fluorometer. Appropriate cell density for seeding and duration of treatment with the substrate were determined in preliminary experiments.
First, cells were seeded in 96 well plates and then growth medium was added to each well to get a final volume of 80 μl. Compounds to be tested were diluted with medium from a 10 mM stock solution in DMSO to get different concentrations, and 20 μl of these solutions were added to the wells. The final DMSO concentration was 0.5%. All treatments and controls were performed in at least triplicates. Cells were incubated at 37° C. and 5% CO2 for 48 h. Then, 20 μl substrate solution was added to the wells, plates were incubated for 3 hours and analyzed.
The impact of the compounds according to the invention on healthy cells was assessed using peripheral blood mononuclear cells (PBMC). Cell viability was tested using the CellTiter-Blue Cell Viability Assay (Promega, Madison, Wis., USA) as described in Example 7.

[2] = system: CLL cell lines MEC-1 and MEC-2; test: Annexin V-FITC / propidium iodide staining, apoptosis in CLL cell lines; type: cell-based; conditions: MEC-1 and MEC-2; 24 and 48 hours incubation; FIG. 4
Protocol: Apoptosis was detected using propidium iodide/Annexin V FACS staining (Bender MedSystems).
Annexin V binds to phosphatidylserine which is exposed at the cell surface during execution of apoptosis. First, cells were seeded out at a density of 1.5 to 2.5 million cells per well in 12 well plates and then growth medium was added to each well to get a final volume of 2.5 ml. Compounds to be tested were diluted with medium from a 10 mM stock solution in DMSO to get different concentrations and cells were treated with 25 μl of these solutions. The final DMSO concentration was 0.5%. All treatments and controls were performed twice. Cells were incubated at 37° C. and 5% CO2 for 24 h and 48 h. Then, growth medium was removed by centrifugation, the supernatant discarded and 200 μl of an Annexin V solution were added. After 10 minutes in the dark, cells were washed once with Annexin buffer and the solution removed by centrifugation. The supernatant was discarded again and cells were suspended in 200 μl of a propidium iodide solution. Cells were measured by flow cytometry with a total of 10 000 events. Data were analyzed with CellQuest Pro™.
Compounds 1 and 22 were also tested on the CLL cell lines MEC-1 and MEC-2 in comparison with fludarabine and cyclophosphamide, two compounds used in the treatment of hematological malignancies (MEC-1 is a fludarabine-resistant cell line).

hematological cell lines = test: Viability assay in cell lines, summary of Table 4; type: cell-based; conditions: after 48 hours in most of the cell lines, read-out: IC50-values obtained by the viability assay in cell lines
Protocol: (§1) For quantification, cells are treated with a tetrazolium salt as indicator of cell viability. […] Then, the solution is analyzed photometrically at 450 nm with 620 nm as reference.
(§2) The final DMSO concentration was 0.5%. […] Then, wells were filled with 20 μl substrate solution for 2 to 4 hours and analyzed.
(§3) Cell viability was calculated relative to DMSO control for data comparison. IC50 values (50% inhibition of cell growth) were determined with GraphPad Prism® (Version 4.03) using nonlinear regression (sigmoidal dose-response with variable slope).

[3] = system: K562 (Chronic myeloid leukemia); test: Cell viability assay using EZ4U viability kit, K562; type: cell-based; conditions: Homo sapiens
Protocol: as §1, §2, §3

[4] = system: primary chronic lymphocytic leukemia (CLL) cells; test: In vitro drug test in primary CLL cells (CellTiter-Blue viability); type: cell-based; conditions: 48 h incubation; mean of 15 patients; FIG. 6
Text: FIG. 6: […] Data points represent the arithmetic mean of 15 patients calculated in relation to the control. […] The final DMSO concentration was 0.5%.

[5] = system: chronic lymphocytic leukemia (CLL) cells in co-culture with stromal cells; test: Co-culture model of primary CLL cells and stromal cells (CellTiter-Blue viability); type: cell-based; conditions: 48 h incubation; mean of 5 patients; FIG. 7
Text: FIG. 7: […] Data points represent the arithmetic mean of 5 patients calculated in relation to the control. […] The final DMSO concentration was 0.5%. […] In many tumors, the microenvironment plays a major role for the survival of malignant cells. In chronic lymphocytic leukemia (CLL), it has been shown that interaction with the microenvironment, among other things, promotes the survival of tumor cells during chemotherapy. Thus, co-culture models have been developed which better reflect the in vivo situation. The inventors used such a pre-clinical model for drug incubation to study the effect of stromal cells on viability.

[6] = system: CCRF-CEM (T-cell acute lymphoblastic leukemia); test: Cell viability assay using EZ4U viability kit, CCRF-CEM; type: cell-based; conditions: Homo sapiens
Protocol: as §1, §2, §3

[7] = system: SU-DHL-6 or SU-DHL-9 NHL cells; test: Annexin V-FITC / propidium iodide staining, early apoptosis in NHL cells; type: cell-based; conditions: 48 h incubation; FIG. 2
Protocol: FIG. 2. Changes in early apoptosis in SU-DHL-6 or SU-DHL-9 NHL cells after 48 h incubation with compounds 1 and 22, respectively. Effect of compound 1 in a) SU-DHL-6 and b) SU-DHL-9, and effect of compound 22 in c) SU-DHL-6 and d) SU-DHL-9. Apoptosis was detected using propidium iodide/Annexin V FACS staining (Bender MedSystems). Viability was detected using the EZ4U viability kit (Biomedica).
Annexin V binds to phosphatidylserine which is exposed at the cell surface during execution of apoptosis. […] The final DMSO concentration was 0.5%. All treatments and controls were performed twice. […] Then, growth medium was removed by centrifugation, the supernatant discarded and 200 μl of an Annexin V solution were added. After 10 minutes in the dark, cells were washed once with Annexin buffer and the solution removed by centrifugation. The supernatant was discarded again and cells were suspended in 200 μl of a propidium iodide solution. Cells were measured by flow cytometry with a total of 10 000 events. Data were analyzed with CellQuest Pro™.

[8] = system: SU-DHL-6 (Non Hodgkin's lymphoma); test: Cell viability assay using EZ4U viability kit, SU-DHL-6; type: cell-based; conditions: Homo sapiens
Protocol: as §1, §2, §3

[9] = 24 h incubation, read-out: IC50 (nM) K562 24 h (converted)
[10] = 48 h incubation, read-out: IC50 (nM) K562 48 h (converted)
[11] = 24 h incubation, read-out: IC50 (nM) CCRF-CEM 24 h
[12] = 48 h incubation, read-out: IC50 (nM) CCRF-CEM 48 h
[13] = 24 h incubation, read-out: IC50 (nM) SU-DHL-6 24 h
[14] = 48 h incubation, read-out: IC50 (nM) SU-DHL-6 48 h

IC50 [3, 9] [nM] | IC50 [3, 10] [nM] | IC50 [6, 11] [nM] | IC50 [6, 12] [nM] | IC50 [8, 13] [nM] | IC50 [8, 14] [nM] | SMILES | viability of healthy PBMC in suspension culture (toxicity) [1] | apoptosis induction compared with fludarabine and cyclophosphamide [2] | IC50 (hematological cell lines) [nM] | viability of primary CLL cells in suspension culture [4] | viability of CLL cells in co-culture with stromal cells [5] | early apoptosis (propidium iodide/Annexin V FACS staining) [7]
17700 | 13700 | 40 | 40 | 10 | 40 | CCOc1ccccc1C(=O)/C=C/c1ccc2ccccc2c1 [Compound 22, 3-(2-Naphthyl)-1-(2′-ethoxyphenyl)-2-propene-1-one] | less toxic | induced apoptosis in a lower concentration range than fludarabine and cyclophosphamide | ~10 | effective in CLL cells at lower concentrations than the standard therapeutic drugs fludarabine and cyclophosphamide | higher cytotoxicity than the control drugs fludarabine and cyclophosphamide | induce early apoptosis
20900 | 50 | 70 | 70 | 180 | 20 | COc1ccccc1/C=C/C=C/C(=O)c1cc(OC)c(OC)c(OC)c1 [Compound 1, 5-(2-Methoxyphenyl)-1-(3′,4′,5′-trimethoxyphenyl)-2,4-pentadiene-1-one] | less toxic | induced apoptosis in a lower concentration range than fludarabine and cyclophosphamide | ~10 | effective in CLL cells at lower concentrations than the standard therapeutic drugs fludarabine and cyclophosphamide | higher cytotoxicity than the control drugs fludarabine and cyclophosphamide | induce early apoptosis
